Tests used:
liver cancer = conditions: phase III of human clinical trials; cited from earlier work
[1] = system: human liver tumor cell line ITRI-H16; experiment: Cell viability of ITRI-H16 cells after 48-hour treatment, Alarmablue measurement assay; conditions: read-out: half maximal inhibitory concentration (IC50) in the ITRI-H16 cell line

- IC50 [1]: ~14 µM
Compound: CNC(=O)c1cc(Oc2ccc(NC(=O)Nc3ccc(Cl)c(C(F)(F)F)c3)cc2)ccn1 [Sorafenib]
- extension of patient survival time (liver cancer): three-month

— patent US20150160195A1, “HUMAN LIVER TUMOR CELL LINE AND METHOD OF AGENT SCREENING” (Industrial Technology Research Institute, priority 2013, published 2015)
